From PubChem BioAssay (NCI) come the findings set out here.

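Tested at 5 concentrations; 48 h exposure; 96-well plates; endpoints linearly interpolated, else capped at highest concentration. GI50 = concentration required for 50% inhibition of growth. TGI marks complete inhibition of growth.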 Where only a bound is given, the exact number is not on record here.

Among the test systems are HCT-116 colon; UACC-62 melanoma; SW-620 colon; SK-OV-3 ovarian; LOX IMVI melanoma; ACHN renal; OVCAR-8 ovarian; HCC-2998 colon; SF-539 CNS; HCT-15 colon.
Test in all cases: NCI-60 cell line screen, 48 h

On to `COc1ccc2c(c1)OCC1c3cc(OC)ccc3OC21` (centres undefined), for which the GI50 with HCT-116 colon was 47.5 µM; in the assay on UACC-62 melanoma, 51 µM; in the assay with SW-620 colon, more than 100 µM; in the assay with SK-OV-3 ovarian it was more than 100 µM; in the assay on LOX IMVI melanoma, 45.9 µM; in the assay on ACHN renal it was 53.1 µM. Also, the GI50 is 80.3 µM in the assay with OVCAR-8 ovarian, 5.42 µM in the assay with HCC-2998 colon, 97.7 µM in the assay on SF-539 CNS and 44.9 µM with HCT-15 colon. The TGI in the assay with HCT-116 colon, in the assay with UACC-62 melanoma, in the assay with SW-620 colon, in the assay with SK-OV-3 ovarian, in the assay with LOX IMVI melanoma and with ACHN renal was more than 100 µM in each case. For the same compound, the TGI in the assay on OVCAR-8 ovarian is more than 100 µM; with HCC-2998 colon, 58 µM; with SF-539 CNS, more than 100 µM; in the assay with HCT-15 colon, more than 100 µM.

In the case of `CCc1cccc(CC)c1NC1=CC(=O)C(=O)c2ccccc21`, the TGI with HCT-116 colon came to 34.8 µM; in the assay with UACC-62 melanoma, 30.1 µM; in the assay on SW-620 colon, 31.7 µM; in the assay on SK-OV-3 ovarian it was 89.5 µM; in the assay with LOX IMVI melanoma, 29.3 µM; in the assay with ACHN renal, 26 µM. Moreover, the TGI in the assay with OVCAR-8 ovarian stood at 36.7 µM; with HCC-2998 colon, 28.8 µM; with SF-539 CNS it was 35.4 µM; in the assay with HCT-15 colon, 57.7 µM.

`C=C1C(=O)O[C@H]2[C@H]1CC/C(COC(=O)NCc1ccc(Cn3c(=O)sn(CCCI)c3=O)cc1)=C\CC[C@@]1(C)O[C@@H]21`: the GI50 in the assay with HCT-116 colon was 1.05 µM; with UACC-62 melanoma, 1.41 µM; in the assay on SW-620 colon, 1.4 µM; in the assay with SK-OV-3 ovarian it was 13.6 µM; with LOX IMVI melanoma, 1.4 µM; in the assay with ACHN renal, 1.7 µM. In addition, the GI50 with OVCAR-8 ovarian was 3.04 µM; in the assay with HCC-2998 colon it was 1.96 µM; in the assay on SF-539 CNS, 1.71 µM; in the assay with HCT-15 colon it was 1.89 µM. The TGI in the assay with HCT-116 colon was found to be 2.57 µM; with UACC-62 melanoma, 2.88 µM; in the assay with SW-620 colon, 3.17 µM; in the assay with SK-OV-3 ovarian, 28.3 µM; in the assay on LOX IMVI melanoma, 2.81 µM; in the assay with ACHN renal, 3.19 µM. Besides, the TGI was found to be 9.87 µM in the assay on OVCAR-8 ovarian, 3.71 µM with HCC-2998 colon, 3.34 µM with SF-539 CNS and 3.68 µM in the assay on HCT-15 colon.

Consider `CC(=O)NNc1nc(C)c(C(=O)NNC(=O)C(=O)Nc2ccc(C)cc2[N+](=O)[O-])s1`, for which the TGI in the assay with HCT-116 colon, in the assay with UACC-62 melanoma, in the assay on SW-620 colon, with SK-OV-3 ovarian, in the assay on LOX IMVI melanoma and in the assay with ACHN renal was more than 100 µM each time. Further, the TGI in the assay on OVCAR-8 ovarian, with HCC-2998 colon, in the assay on SF-539 CNS and with HCT-15 colon was more than 100 µM each time.

In the case of `CC(C)OC(=O)OCOP(=O)(OCOC(=O)OC(C)C)C1CCCN(O)C1=O` (centres undefined), the GI50 in the assay on HCT-116 colon is 0.711 µM; with UACC-62 melanoma, 0.704 µM; in the assay with SW-620 colon it was 1.37 µM; in the assay on SK-OV-3 ovarian, 1.84 µM; with LOX IMVI melanoma it was 2.3 µM; in the assay on ACHN renal, 0.888 µM. Further, the GI50 in the assay with OVCAR-8 ovarian was 0.619 µM; with HCC-2998 colon it was 2.07 µM; in the assay with SF-539 CNS, 5.79 µM; with HCT-15 colon it was 1.85 µM. Also, the TGI is more than 100 µM in the assay with HCT-116 colon; 3.29 µM in the assay on UACC-62 melanoma; more than 100 µM in the assay with SW-620 colon; more than 100 µM in the assay on SK-OV-3 ovarian; more than 100 µM in the assay on LOX IMVI melanoma; more than 100 µM with ACHN renal. Besides, the TGI with OVCAR-8 ovarian is more than 100 µM; in the assay on HCC-2998 colon, 44.7 µM; in the assay with SF-539 CNS it was more than 100 µM; in the assay on HCT-15 colon, more than 100 µM.

As to `BrC(/C=N/Nc1nnc(-c2ccccc2)c(-c2ccccc2)n1)C(Br)c1ccccc1` (centres undefined), the TGI in the assay with UACC-62 melanoma is 53.5 µM; in the assay on SW-620 colon it was more than 100 µM; in the assay on SK-OV-3 ovarian, more than 100 µM; in the assay with LOX IMVI melanoma it was more than 100 µM; in the assay on ACHN renal it was more than 100 µM; in the assay on OVCAR-8 ovarian it was more than 100 µM. Besides, the TGI in the assay with HCC-2998 colon, with SF-539 CNS and in the assay with HCT-15 colon was more than 100 µM throughout.

In the case of `Cc1c(Cl)ccc2[s+]snc12`, the TGI in the assay on HCT-116 colon was 59 µM; in the assay on UACC-62 melanoma, 45.2 µM; with SW-620 colon, 52.2 µM; in the assay with SK-OV-3 ovarian, more than 100 µM; in the assay on LOX IMVI melanoma, 49.9 µM; with ACHN renal, more than 100 µM. The TGI in the assay with OVCAR-8 ovarian is 57.1 µM; in the assay on HCC-2998 colon, more than 100 µM; in the assay with SF-539 CNS it was 44.6 µM; in the assay with HCT-15 colon it was more than 100 µM.

As to `C=C(C)[C@@H]1CC[C@]2(C(=O)OC)CC[C@]3(C)[C@H](CC[C@@H]4[C@@]5(C)CC/C(=N\OCCC(=NCCC#N)NOCCC#N)C(C)(C)[C@@H]5CC[C@]43C)[C@@H]12`, the GI50 in the assay with HCT-116 colon was 2.89 µM; in the assay with UACC-62 melanoma, 2.32 µM; in the assay with SW-620 colon, 4.45 µM; in the assay with SK-OV-3 ovarian, 10.8 µM; in the assay on LOX IMVI melanoma, 4.32 µM; in the assay on ACHN renal it was 10.5 µM. The GI50 in the assay with OVCAR-8 ovarian is 9.66 µM; in the assay on HCC-2998 colon, 13.8 µM; in the assay with SF-539 CNS it was 11 µM; in the assay on HCT-15 colon, 5.77 µM. The TGI in the assay with HCT-116 colon was more than 50 µM; in the assay with UACC-62 melanoma it was 12.6 µM; with SW-620 colon it was more than 50 µM; in the assay on SK-OV-3 ovarian, more than 50 µM; in the assay with LOX IMVI melanoma, 10.4 µM; with ACHN renal, more than 50 µM. Besides, the TGI in the assay with OVCAR-8 ovarian, in the assay with HCC-2998 colon, with SF-539 CNS and in the assay with HCT-15 colon was more than 50 µM throughout.

Consider `CCc1ccc2cc3c(ccc4ccccc43)c3c2c1CC3`, for which the GI50 with HCT-116 colon, with UACC-62 melanoma, in the assay with SW-620 colon, in the assay with SK-OV-3 ovarian, in the assay on LOX IMVI melanoma and in the assay on ACHN renal was more than 100 µM throughout. Further, the GI50 in the assay with OVCAR-8 ovarian, with HCC-2998 colon, in the assay on SF-539 CNS and in the assay on HCT-15 colon was more than 100 µM in each case. For the same compound, the TGI with HCT-116 colon, with UACC-62 melanoma, in the assay on SW-620 colon, in the assay with SK-OV-3 ovarian, in the assay on LOX IMVI melanoma and with ACHN renal was more than 100 µM in each case. Further, the TGI in the assay on OVCAR-8 ovarian, in the assay on HCC-2998 colon, in the assay with SF-539 CNS and in the assay with HCT-15 colon was more than 100 µM in each case.
